Laboratory results published in patent publication US7271198B2, “Method of treating autoimmune diseases” (Wake Forest University, priority 2000, dated 2007).

Legend:
[1] = test system: IFN-γ transcript; assay: RT-PCR of IFN-γ transcript in SLE T cells; type: cell-based, human
Description: T cells were cultured in the absence or presence of increasing concentrations of TSA for 18 hr in 5% CO2 at 37° C. RNA was isolated, cDNAs were prepared, and RT-PCR was performed as previously detailed (D. Laxminarayana, et al., J. Clin. Invest. 92, 2207 (1993)). The primers used were: […]
The reaction mixtures were subjected to 30 cycles of denaturation (94° C., 1 min) and annealing for 1 min at 53° C. (CD154), […] (GAPDH) and 55° C. (IL-10 and IFN-γ). Extension was for 2 min at 72° C. with a final extension of 7 min at 72° C. using a DNA thermal cycler (Perkin-Elmer).
Low production of IFN-γ by SLE T cells may reflect down-regulation of gene expression (B. S. Handwerger, et al., in Lupus: Molecular and Cellular Pathogenesis, G. M. Kammer and G. C. Tsokos, Eds. (Humana Press, Totowa, N.J., 1999), chap. 21; E. Hagiwara, et al., Arthritis Rheum. 39, 379 (1996)). To establish whether TSA can up-regulate IFN-γ expression, SLE T cells were treated for 18 hr in the absence or presence of TSA. During that time, TSA induced a three-fold increase in IFN-γ transcript compared to untreated cells (FIG. 3A, lanes 1 and 7, and FIG. 3B). When T cells were activated with PMA+IO in the absence of TSA, peak IFN-γ transcript expression increased 13-fold at 1 hr over basal levels relative to GAPDH transcript, but waned thereafter. […]

[2] = test system: IFN-γ protein; assay: IFN-γ protein production by SLE T cells (ELISA); type: cell-based, human; conditions: SLE T cells activated with PMA+IO 24 hr in presence of TSA; P=0.011
Description: To determine whether TSA could down-regulate IL-10, a dose-response analysis was performed. […] However, when SLE T cells were cultured in the presence of TSA for 18 hr, no detectable IL-10 transcripts were identified (FIG. 2C, lanes 3, 6, 9). When IL-10 transcripts from all eight SLE subjects were quantified relative to GAPDH transcripts, TSA inhibited expression of IL-10 mRNA by 71% (FIG. 2D; P=0.029). […] IL-10 and IFN-γ protein production were quantified by ELISA (R & D Systems, Minneapolis, Minn.). […] Thus, like CD154, TSA was able to block expression of IL-10 transcript, abolishing IL-10 production by SLE T cells.
When T cells were activated with PMA+IO for 24 hr, IFN-γ production increased about 24-fold. However, activation of T cells in the presence of TSA further enhanced IFN-γ output by >12-fold (P=0.011) (FIG. 3C).

[3] = test system: TGF-β1 gene chromatin; assay: DNase I sensitivity assay of TGF-β1 gene in SLE PBMCs; type: cell-based, human
Description: Because nuclease susceptibility is one of the characteristics of active chromatin, a DNase I sensitivity assay was used to examine chromatin conformation of the TGF-β1 gene in SLE PBMCs in the absence or presence of TSA. SLE PBMCs were treated with 1000 ng/ml of TSA for 18 hr, a treatment course shown previously to result in an optimal increase of TGF-β1 mRNA. Equal amounts of purified nuclei isolated from vehicle- or TSA-treated cells were exposed to increasing concentrations of DNase I (FIGS. 7A & 7B). Changes in DNase sensitivity were measured by a DNase I-PCR assay using 0.5 μg of DNA. As shown in the FIG. 7A, the cells treated with only vehicle were relatively resistant to DNase I digestion, even with use of higher concentrations of DNase I (0.25 μg/μl). In contrast, cells treated with TSA were digested in the lower concentration (0.025 μg/μl) of DNase I (FIG. 7B; lanes 3–6). […] There was no change in DNase I sensitivity at the G6PD gene promoter in vehicle- or TSA-treated SLE PBMCs (FIGS. 7A & 7B). Thus, it is likely that Trichostatin A increases DNase I sensitivity in the TGF-β1 gene of SLE PBMCs.

[4] = test system: SP1 binding; assay: SP1 binding at TGF-β1 promoter; type: cell-based, human; conditions: after treatment with TSA
Description: Exposure of SLE PBMCs to TSA and SAHA yielded an eight-fold increase in TGF-β1 transcript and a 30% rise in the synthesis of TGF-β1 protein. This enhanced transcriptional activation was temporally associated with increased acetylation of both H3 and H4 nucleosomal histones. […] The increase in total acetylated histones was not global; neither GAPDH nor G6PD genes were transcriptionally activated. […] Thus, the capacity of HDIs to increase the endogenous synthesis of TGF-β1 raises the possibility that these inhibitors could be therapeutic candidates for the treatment of SLE, atherosclerosis, and osteoporosis in addition to cancers.

[5] = test system: IFN-γ protein; assay: IFN-γ protein secretion by MRL/lpr splenocytes; type: cell-based, mouse; conditions: Con A-stimulated splenocytes from younger MRL/lpr mice, 72 hr; p=0.004
Description: The marked inhibition of IFN-γ transcript by these inhibitors prompted us to quantify IFN-γ protein secretion in splenocyte culture supernatants. Over 72 hr, Con A, but not LPS, stimulated splenocytes from younger MRL/lpr mice to secrete a mean (±SEM) 1,563.2±88.3 pg/ml of IFN-γ (FIG. 8D). […] Thus, inhibition of IFN-γ transcription by TSA and SAHA blocks secretion of IFN-γ protein by splenocytes.

[6] = test system: acetylated H3 and H4 histones; assay: Immunoblot of acetylated H3 and H4 histones in MRL/lpr splenocytes; type: cell-based, mouse; conditions: 18 hr exposure
Description: One mechanism by which HDIs suppress transcription of cytokine genes in MRL/lpr splenocytes may be by increasing accumulation of acetylated histones which may result in chromatin remodeling. The accumulation of acetylated histones H3 and H4 in HDI-treated splenocytes was quantified to test this hypothesis. FIG. 12 is an immunoblot analysis of the acetylation levels of H3 and H4 histones.

`CC(/C=C/C(=O)NO)=C\[C@@H](C)C(=O)c1ccc(N(C)C)cc1` [TSA, Trichostatin A] was tested, and the “peak increase in IFN-γ mRNA over untreated cells relative to GAPDH” value ([1]; SLE T cells activated with PMA+IO in presence of TSA, at 6 hr, P=0.031) was 37 fold, the “increase in IFN-γ transcript compared to untreated cells” value ([1]; SLE T cells, TSA 18 hr, not activated) was “three-fold” and the “further enhancement of IFN-γ output” value [2] was greater than 12 fold. For the same compound, the “increase in DNase I sensitivity, TGF-β1 promoter” value ([3]; SLE PBMCs, 1000 ng/ml TSA, 18 hr) was “three-fold”, the “DNase I sensitivity at the G6PD gene promoter” value ([3]; vehicle- or TSA-treated SLE PBMCs) was “no change” and the “SP1 binding after localized acetylation of the TGF-β1 promoter” value [4] was “not associated with a concomitant increase”. The IFN-γ protein secretion [5] was “did not secrete detectable levels” and the “accumulation of acetylated H3 and H4 histones” value [6] was “marked increase”.
